Measured values taken from patent US10251892B2, “Bicyclic heterocycles as FGFR4 inhibitors” (Incyte Corporation, priority 2015, dated 2019).

Key:
FGFR3 enzyme = FGFR3 enzyme (Homo sapiens (Human), UniProt P22607); experiment: FGFR Enzymatic Assay (peptide phosphorylation, FRET), FGFR3; format: biochemical; conditions: IC50 ratio showing FGFR3 selectivity; pre-incubated for 4 hours
Description: (§1) The inhibitor potency of the exemplified compounds was measured in an enzyme assay that measures peptide phosphorylation using FRET measurements to detect product formation. Inhibitors were serially diluted in DMSO and a volume of 0.5 μL was transferred to the wells of a 384-well plate.
(§2) GraphPad prism3 was used to analyze the data.

FGFR4 = FGFR4 (Homo sapiens (Human), UniProt P22455); experiment: FGFR Enzymatic Assay (peptide phosphorylation, FRET), FGFR4; format: biochemical
Description: as §1
The enzymes were purchased from Millipore or Invitrogen.
as §2

[1] = IC50 ratio showing FGFR4 selectivity, pre-incubated for 4 hours
[2] = ratio of IC50 data showing FGFR4 selectivity, pre-incubated for 5 to 10 minutes

Sequence of FGFR3 enzyme (P22607 23-806): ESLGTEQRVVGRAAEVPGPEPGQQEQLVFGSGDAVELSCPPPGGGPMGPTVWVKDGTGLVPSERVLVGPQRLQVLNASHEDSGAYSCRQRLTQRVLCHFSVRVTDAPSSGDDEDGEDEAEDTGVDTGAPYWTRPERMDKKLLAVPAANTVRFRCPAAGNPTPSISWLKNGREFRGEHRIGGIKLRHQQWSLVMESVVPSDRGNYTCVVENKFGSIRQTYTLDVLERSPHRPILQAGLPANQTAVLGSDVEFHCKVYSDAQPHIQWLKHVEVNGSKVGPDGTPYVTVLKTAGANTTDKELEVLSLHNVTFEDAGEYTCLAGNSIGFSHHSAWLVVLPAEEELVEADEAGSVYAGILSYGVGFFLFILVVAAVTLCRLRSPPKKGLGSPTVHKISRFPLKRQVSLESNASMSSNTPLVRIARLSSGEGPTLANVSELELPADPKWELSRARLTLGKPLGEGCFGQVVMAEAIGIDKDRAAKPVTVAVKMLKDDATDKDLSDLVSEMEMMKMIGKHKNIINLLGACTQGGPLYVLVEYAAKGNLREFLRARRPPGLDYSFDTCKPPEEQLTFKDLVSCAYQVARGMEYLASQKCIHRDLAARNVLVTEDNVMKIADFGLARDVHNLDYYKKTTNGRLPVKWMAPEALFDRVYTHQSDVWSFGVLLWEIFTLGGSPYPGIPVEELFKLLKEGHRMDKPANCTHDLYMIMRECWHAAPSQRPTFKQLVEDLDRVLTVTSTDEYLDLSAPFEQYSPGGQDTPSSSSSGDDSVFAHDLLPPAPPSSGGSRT
Sequence of FGFR4 (P22455 22-802): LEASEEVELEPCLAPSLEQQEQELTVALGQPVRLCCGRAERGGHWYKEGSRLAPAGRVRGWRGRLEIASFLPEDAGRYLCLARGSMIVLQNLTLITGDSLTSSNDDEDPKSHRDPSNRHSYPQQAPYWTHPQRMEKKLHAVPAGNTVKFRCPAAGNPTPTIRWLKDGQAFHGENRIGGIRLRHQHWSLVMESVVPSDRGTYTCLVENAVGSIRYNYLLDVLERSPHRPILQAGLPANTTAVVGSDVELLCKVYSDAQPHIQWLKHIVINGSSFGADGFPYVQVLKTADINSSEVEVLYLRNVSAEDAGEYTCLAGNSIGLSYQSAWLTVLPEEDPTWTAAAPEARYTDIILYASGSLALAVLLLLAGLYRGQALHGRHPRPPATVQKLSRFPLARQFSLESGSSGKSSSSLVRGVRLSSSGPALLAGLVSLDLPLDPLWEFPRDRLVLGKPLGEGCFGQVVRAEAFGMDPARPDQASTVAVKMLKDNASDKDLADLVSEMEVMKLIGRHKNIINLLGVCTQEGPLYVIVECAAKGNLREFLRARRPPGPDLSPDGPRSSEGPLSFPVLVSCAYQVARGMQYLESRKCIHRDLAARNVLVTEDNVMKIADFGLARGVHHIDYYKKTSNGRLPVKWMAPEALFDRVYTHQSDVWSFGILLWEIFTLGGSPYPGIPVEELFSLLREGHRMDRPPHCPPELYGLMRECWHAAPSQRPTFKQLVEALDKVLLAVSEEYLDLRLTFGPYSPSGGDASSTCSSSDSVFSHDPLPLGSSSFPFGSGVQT

SMILES	FGFR1/FGFR3 (FGFR3 enzyme)	FGFR1/FGFR4 (FGFR4; [1])	FGFR2/FGFR4 (FGFR4; [1])	FGFR3/FGFR4 (FGFR4; [1])	FGFR1/FGFR4 (FGFR4; [2])	FGFR2/FGFR4 (FGFR4; [2])	FGFR3/FGFR4 (FGFR4; [2])
COc1cc(OC)c(F)c(N2Cc3cnc(-c4cncc(S(=O)(=O)N5CCOCC5)c4)cc3C3(CC3)C2=O)c1F [Example 14, 2′-(2,6-difluoro-3,5-dimethoxyphenyl)-6′-(5-(morpholinosulfonyl)pyridin-3-yl)-1′H-spiro[cyclopropane-1,4′-[2,7]naphthyridin]-3′(2′H)-one]	>5	>50	>10	>1	>25	>5	>5
COc1cc(OC)c(F)c(N2Cc3cnc(-c4cncc(-n5ccnc5)c4)cc3C3(CC3)C2=O)c1F [Example 12, 6′-(5-(1H-imidazol-1-yl)pyridin-3-yl)-2′-(2,6-difluoro-3,5-dimethoxyphenyl)-1′H-spiro[cyclopropane-1,4′-[2,7]naphthyridin]-3′(2′H)-one]	>3	>50	>25	>10	>50	>25	>20
COc1cc(OC)c(F)c(N2Cc3cnc(-c4cncc(C#N)c4)cc3C3(CC3)C2=O)c1F [Example 8, 5-(2′-(2,6-difluoro-3,5-dimethoxyphenyl)-3′-oxo-2′,3′-dihydro-1′H-spiro[cyclopropane-1,4′-[2,7]naphthyridine]-6′-yl)nicotinonitrile]	>5	>50	>10	>10	>50	>10	>10
COc1cc(OC)c(F)c(N2Cc3cnc(-c4cncc(N5CCOCC5)c4)cc3C3(CC3)C2=O)c1F [Example 6, 2′-(2,6-difluoro-3,5-dimethoxyphenyl)-6′-(5-morpholinopyridin-3-yl)-1′H-spiro[cyclopropane-1,4′-[2,7]naphthyridin]-3′(2′H)-one]	>3	>100	>100	>25	>100	>100	>50
COc1cc(OC)c(F)c(N2Cc3cnc(-c4cncc(NS(C)(=O)=O)c4)cc3C3(CC3)C2=O)c1F [Example 15, N-(5-(2′-(2,6-difluoro-3,5-dimethoxyphenyl)-3′-oxo-2′,3′-dihydro-1′H-spiro[cyclopropane-1,4′-[2,7]naphthyridine]-6′-yl)pyridin-3-yl)methanesulfonamide]	>3	>50	>25	>10	>50	>25	>10
COc1cc(OC)c(F)c(N2Cc3cnc(-c4cncc(F)c4)cc3C3(CC3)C2=O)c1F [Example 5, 2′-(2,6-difluoro-3,5-dimethoxyphenyl)-6′-(5-fluoropyridin-3-yl)-1′H-spiro[cyclopropane-1,4′-[2,7]naphthyridin]-3′(2′H)-one]	>3	>10	>5	>1	>10	>5	>4
COc1cc(OC)c(F)c(N2Cc3cnc(-c4cncc(CN5CCOCC5)c4)cc3C3(CC3)C2=O)c1F [Example 16, 2′-(2,6-difluoro-3,5-dimethoxyphenyl)-6′-(5-(morpholinomethyl)pyridin-3-yl)-1′H-spiro[cyclopropane-1,4′-[2,7]naphthyridin]-3′(2′H)-one]	>1	>50	>25	>10	>25	>10	>10
COc1cc(OC)c(F)c(N2Cc3cnc(-c4cc(N)cnc4C)cc3C3(CC3)C2=O)c1F [Example 7, 6′-(5-amino-2-methylpyridin-3-yl)-2′-(2,6-difluoro-3,5-dimethoxyphenyl)-1′H-spiro[cyclopropane-1,4′-[2,7]naphthyridin]-3′(2′H)-one]	>1	>50	>25	>25	>25	>10	>10
COc1cc(OC)c(F)c(N2Cc3cnc(-c4cccnc4)cc3C3(CC3)C2=O)c1F [Example 9, 2′-(2,6-difluoro-3,5-dimethoxyphenyl)-6′-(pyridin-3-yl)-1′H-spiro[cyclopropane-1,4′-[2,7]naphthyridin]-3′(2′H)-one]	>3	>10	>1	>1	>5	>1	>1
COc1cc(OC)c(F)c(N2Cc3cnc(-c4cncc(C(=O)N5CCOCC5)c4)cc3C3(CC3)C2=O)c1F [Example 13, 2′-(2,6-difluoro-3,5-dimethoxyphenyl)-6′-(5-(morpholine-4-carbonyl)pyridin-3-yl)-1′H-spiro[cyclopropane-1,4′-[2,7]naphthyridin]-3′(2′H)-one]	>3	>50	>25	>10	>50	>20	>10
COc1cc(OC)c(F)c(N2Cc3cnc(-c4cncc(N)c4)cc3C3(CC3)C2=O)c1F [Example 4, 6′-(5-aminopyridin-3-yl)-2′-(2,6-difluoro-3,5-dimethoxyphenyl)-1′H-spiro[cyclopropane-1,4′-[2,7]naphthyridin]-3′(2′H)-one]	>1	>25	>10	>10	>10	>10	>5
